In patent publication US20100267561A1, “HERBICIDAL PYRIDAZINONE DERIVATIVES” (priority 2007, published 2010):

Columns and labels:
Test in all cases: Test B pre-/postemergence plant response
Assay type in all cases: in vivo
[1] = tested on: Italian ryegrass (Lolium multiflorum)
Source text: (§1) Seeds of plant species selected from blackgrass (Alopecurus myosuroides), downy bromegrass (Bromus tectorum), green foxtail (Setaria viridis), Italian ryegrass (Lolium multiflorum), wheat (Triticum aestivum), wild oat (Avena fatua), catchweed bedstraw (Galium aparine), bermudagrass (Cynodon dactylon), surinam grass (Brachiaria decumbens), cocklebur (Xanthium strumarium), corn (Zea mays), large crabgrass (Digitaria sanguinalis), woolly cupgrass (Eriochloa villosa), giant foxtail (Setaria faberii), goosegrass (Eleusine indica), johnsongrass (Sorghum halepense), kochia (Kochia scoparia), lambsquarters (Chenopodium album), morningglory (Ipomoea coccinea), eastern black (E.B.) nightshade (Solanum ptycanthum), yellow nutsedge (Cyperus esculentus), pigweed (Amaranthus retroflexus), common ragweed (Ambrosia elation), Russian thistle (Salsola iberica), soybean (Glycine max), common (oilseed) sunflower (Helianthus annuus), and velvetleaf (Abutilon theophrasti) were planted and treated preemergence with test chemicals formulated in a non-phytotoxic solvent mixture which included a surfactant.
(§2) At the same time, plants selected from these crop and weed species and also winter barley (Hordeum vulgare), canarygrass (Phalaris minor), chickweed (Stellaria media) and windgrass (Apera spica-venti) were treated with postemergence applications of some of the test chemicals formulated in the same manner. Plants ranged in height from 2 to 18 cm (1- to 4-leaf stage) for postemergence treatments.
(§3) Plant species in the flooded paddy test consisted of rice (Oryza sativa), umbrella sedge (Cyperus difformis), ducksalad (Heteranthera limosa) and barnyardgrass (Echinochloa crus-galli) grown to the 2-leaf stage for testing. At time of treatment, test pots were flooded to 3 cm above the soil surface, treated by application of test compounds directly to the paddy water, and then maintained at that water depth for the duration of the test. Treated plants and controls were maintained in a greenhouse for 13 to 15 days, after which time all species were compared to controls and visually evaluated. Plant response ratings, summarized in Table B, are based on a scale of 0 to 100 where 0 is no effect and 100 is complete control. A dash (-) response means no test result.

[2] = tested on: blackgrass (Alopecurus myosuroides); details: for Blackgrass plant response rating: 8 g ai/ha, postemergence, 0-100 scale
Source text: as §1, §2, §3

[3] = tested on: downy bromegrass (Bromus tectorum); details: for Bromegrass, Downy plant response rating: 8 g ai/ha
Source text: as §1, §2, §3

[4] = tested on: giant foxtail (Setaria faberii); details: for Foxtail, Giant plant response rating: 8 g ai/ha
Source text: as §1, §2, §3

[5] = tested on: green foxtail (Setaria viridis); details: for Foxtail, Green plant response rating: 8 g ai/ha
Source text: as §1, §2, §3

[6] = tested on: johnsongrass (Sorghum halepense)
Source text: as §1, §2, §3

[7] = tested on: morningglory (Ipomoea coccinea)
Source text: as §1, §2, §3

[8] = tested on: pigweed (Amaranthus retroflexus)
Source text: as §1, §2, §3

[9] = tested on: velvetleaf (Abutilon theophrasti)
Source text: as §1, §2, §3

wild oat (Avena fatua) = tested on: wild oat (Avena fatua)
Source text: as §1, §2, §3

[10] = tested on: woolly cupgrass (Eriochloa villosa); details: for Cupgrass, Woolly plant response rating: 8 g ai/ha
Source text: as §1, §2, §3

[11] = tested on: yellow nutsedge (Cyperus esculentus)
Source text: as §1, §2, §3

[12] = tested on: eastern black (E.B.) nightshade (Solanum ptycanthum); details: Preemergence
Source text: as §1, §2, §3

[13] = 8 g ai/ha, postemergence, 0-100 scale
[14] = Postemergence, 16 g ai/ha, scale 0 to 100
[15] = Postemergence, 31 g ai/ha, scale 0 to 100
[16] = Postemergence, 62 g ai/ha, scale 0 to 100, 0 no effect, 100 complete control
[17] = Preemergence, 16 g ai/ha, scale 0 to 100 (0 no effect, 100 complete control)
[18] = Preemergence, 31 g ai/ha, 0 to 100 scale, 0 no effect, 100 complete control
[19] = Preemergence, 62 g ai/ha, scale 0 to 100
[20] = Preemergence, 8 g ai/ha, scale 0 to 100
[21] = 16 g ai/ha, postemergence, 0-100 scale

Cc1nn(C)c(=O)c(-n2nc(-c3ccc(Cl)cc3)cc2Cl)c1O [Compound 59]
Ryegrass, Italian plant response rating [1, 13]: 80 | Plant response rating, Ryegrass, Italian [1, 14]: 80 | Plant response rating, Ryegrass, Italian [1, 15]: 85 | Plant response rating, Ryegrass, Italian [1, 16]: 85 | Blackgrass plant response rating [2]: 0 | Plant response rating, Blackgrass [2, 14]: 60 | Plant response rating, Blackgrass [2, 15]: 90 | Plant response rating, Blackgrass [2, 16]: 90 | Bromegrass, Downy plant response rating ([3]; postemergence, 0-100 scale): 0 | Plant response rating, Bromegrass, Downy [3, 14]: 5 | Plant response rating, Bromegrass, Downy [3, 15]: 5 | Plant response rating, Bromegrass, Downy [3, 16]: 10 | Foxtail, Giant plant response rating ([4]; postemergence, 0-100 scale): 80 | Plant response rating, Foxtail, Giant [4, 14]: 85 | Plant response rating, Foxtail, Giant [4, 15]: 90 | Plant response rating, Foxtail, Giant [4, 16]: 95 | Foxtail, Green plant response rating ([5]; postemergence, 0-100 scale): 50 | Plant response rating, Foxtail, Green [5, 14]: 90 | Plant response rating, Foxtail, Green [5, 15]: 90 | Plant response rating, Foxtail, Green [5, 16]: 95 | Johnsongrass plant response rating [6, 13]: 0 | Plant response rating, Johnsongrass [6, 14]: 0 | Plant response rating, Johnsongrass [6, 15]: 60 | Plant response rating, Johnsongrass [6, 16]: 80 | Morningglory plant response rating [7, 13]: 0 | Plant response rating, Morningglory [7, 14]: 0 | Plant response rating, Morningglory [7, 15]: 0 | Plant response rating, Morningglory [7, 16]: 0 | Pigweed plant response rating [8, 13]: 0 | Plant response rating, Pigweed [8, 14]: 0 | Plant response rating, Pigweed [8, 15]: 0 | Plant response rating, Pigweed [8, 16]: 0 | Velvetleaf plant response rating [9, 13]: 0 | Plant response rating, Velvetleaf [9, 14]: 0 | Plant response rating, Velvetleaf [9, 15]: 0 | Plant response rating, Velvetleaf [9, 16]: 0 | Oat, Wild plant response rating (wild oat (Avena fatua); [13]): 45 | Plant response rating, Oat, Wild (wild oat (Avena fatua); [14]): 60 | Plant response rating, Oat, Wild (wild oat (Avena fatua); [15]): 70 | Plant response rating, Oat, Wild (wild oat (Avena fatua); [16]): 80 | Cupgrass, Woolly plant response rating ([10]; postemergence, 0-100 scale): 55 | Plant response rating, Cupgrass, Woolly [10, 14]: 60 | Plant response rating, Cupgrass, Woolly [10, 15]: 65 | Plant response rating, Cupgrass, Woolly [10, 16]: 85 | Nutsedge, Yellow plant response rating [11, 13]: 0 | Plant response rating, Nutsedge, Yellow [11, 14]: 0 | Plant response rating, Nutsedge, Yellow [11, 15]: 0 | Plant response rating, Nutsedge, Yellow [11, 16]: 0

Cc1cc(-c2ccc(C(F)(F)F)cc2)nn1-c1c(O)c(C(C)C)nn(C)c1=O [Compound 27]
Plant response rating, Ryegrass, Italian [1, 17]: 0 | Plant response rating, Ryegrass, Italian [1, 18]: 70 | Plant response rating, Ryegrass, Italian [1, 19]: 95 | Ryegrass, Italian plant response rating [1, 20]: 0 | Plant response rating, Blackgrass [2, 17]: 20 | Plant response rating, Blackgrass [2, 18]: 50 | Plant response rating, Blackgrass [2, 19]: 100 | Plant response rating, Bromegrass, Downy [3, 17]: 0 | Plant response rating, Bromegrass, Downy [3, 18]: 50 | Plant response rating, Bromegrass, Downy [3, 19]: 50 | Bromegrass, Downy plant response rating ([3]; Preemergence, scale 0 to 100): 0 | Plant response rating, Nightshade, E. B. ([12]; 16 g ai/ha, scale 0 to 100 (0 no effect, 100 complete control)): 0 | Plant response rating, Nightshade, E. B. ([12]; 31 g ai/ha, 0 to 100 scale, 0 no effect, 100 complete control): 0 | Plant response rating, Nightshade, E. B. ([12]; 62 g ai/ha, scale 0 to 100): 0 | Nightshade, E. B. plant response rating ([12]; 8 g ai/ha, scale 0 to 100): 0 | Plant response rating, Foxtail, Giant [4, 17]: 0 | Plant response rating, Foxtail, Giant [4, 18]: 0 | Plant response rating, Foxtail, Giant [4, 19]: 20 | Foxtail, Giant plant response rating ([4]; Preemergence, scale 0 to 100): 0 | Plant response rating, Foxtail, Green [5, 17]: 0 | Plant response rating, Foxtail, Green [5, 18]: 60 | Plant response rating, Foxtail, Green [5, 19]: 85 | Foxtail, Green plant response rating ([5]; Preemergence, scale 0 to 100): 0 | Plant response rating, Johnsongrass [6, 17]: 40 | Plant response rating, Johnsongrass [6, 18]: 75 | Plant response rating, Johnsongrass [6, 19]: 85 | Johnsongrass plant response rating [6, 20]: 0 | Plant response rating, Morningglory [7, 17]: 0 | Plant response rating, Morningglory [7, 18]: 0 | Plant response rating, Morningglory [7, 19]: 0 | Morningglory plant response rating [7, 20]: 0 | Plant response rating, Pigweed [8, 17]: 0 | Plant response rating, Pigweed [8, 18]: 0 | Plant response rating, Pigweed [8, 19]: 0 | Pigweed plant response rating [8, 20]: 0 | Plant response rating, Velvetleaf [9, 17]: 0 | Plant response rating, Velvetleaf [9, 18]: 0 | Plant response rating, Velvetleaf [9, 19]: 0 | Velvetleaf plant response rating [9, 20]: 0 | Plant response rating, Oat, Wild (wild oat (Avena fatua); [17]): 0 | Plant response rating, Oat, Wild (wild oat (Avena fatua); [18]): 50 | Plant response rating, Oat, Wild (wild oat (Avena fatua); [19]): 50 | Oat, Wild plant response rating (wild oat (Avena fatua); [20]): 0 | Plant response rating, Cupgrass, Woolly [10, 17]: 0 | Plant response rating, Cupgrass, Woolly [10, 18]: 30 | Plant response rating, Cupgrass, Woolly [10, 19]: 55 | Cupgrass, Woolly plant response rating ([10]; Preemergence, scale 0 to 100): 0 | Plant response rating, Nutsedge, Yellow [11, 17]: 0 | Plant response rating, Nutsedge, Yellow [11, 18]: 0 | Plant response rating, Nutsedge, Yellow [11, 19]: 0 | Nutsedge, Yellow plant response rating [11, 20]: 0

CCc1cc(-c2ccc(Br)cc2)nn1-c1c(O)cnn(CC(F)(F)F)c1=O [Compound 73]
Ryegrass, Italian plant response rating [1, 13]: 45 | Ryegrass, Italian plant response rating [1, 21]: 70 | Plant response rating, Ryegrass, Italian [1, 15]: 100 | Plant response rating, Ryegrass, Italian [1, 16]: 100 | Blackgrass plant response rating [2]: 60 | Plant response rating, Blackgrass [2, 14]: 100 | Plant response rating, Blackgrass [2, 15]: 100 | Plant response rating, Blackgrass [2, 16]: 100 | Bromegrass, Downy plant response rating ([3]; postemergence, 0-100 scale): 0 | Plant response rating, Bromegrass, Downy [3, 14]: 0 | Plant response rating, Bromegrass, Downy [3, 15]: 30 | Plant response rating, Bromegrass, Downy [3, 16]: 60 | Foxtail, Giant plant response rating ([4]; postemergence, 0-100 scale): 30 | Plant response rating, Foxtail, Giant [4, 14]: 70 | Plant response rating, Foxtail, Giant [4, 15]: 90 | Plant response rating, Foxtail, Giant [4, 16]: 100 | Foxtail, Green plant response rating ([5]; postemergence, 0-100 scale): 40 | Plant response rating, Foxtail, Green [5, 14]: 70 | Plant response rating, Foxtail, Green [5, 15]: 70 | Plant response rating, Foxtail, Green [5, 16]: 100 | Johnsongrass plant response rating [6, 13]: 70 | Johnsongrass plant response rating [6, 21]: 85 | Plant response rating, Johnsongrass [6, 15]: 90 | Plant response rating, Johnsongrass [6, 16]: 100 | Morningglory plant response rating [7, 13]: 0 | Morningglory plant response rating [7, 21]: 0 | Plant response rating, Morningglory [7, 15]: 0 | Plant response rating, Morningglory [7, 16]: 0 | Pigweed plant response rating [8, 13]: 0 | Pigweed plant response rating [8, 21]: 0 | Plant response rating, Pigweed [8, 15]: 0 | Plant response rating, Pigweed [8, 16]: 0 | Velvetleaf plant response rating [9, 13]: 0 | Velvetleaf plant response rating [9, 21]: 0 | Plant response rating, Velvetleaf [9, 15]: 0 | Plant response rating, Velvetleaf [9, 16]: 0 | Oat, Wild plant response rating (wild oat (Avena fatua); [13]): 70 | Oat, Wild plant response rating (wild oat (Avena fatua); [21]): 95 | Plant response rating, Oat, Wild (wild oat (Avena fatua); [15]): 100 | Plant response rating, Oat, Wild (wild oat (Avena fatua); [16]): 100 | Cupgrass, Woolly plant response rating ([10]; postemergence, 0-100 scale): 85 | Plant response rating, Cupgrass, Woolly [10, 14]: 98 | Plant response rating, Cupgrass, Woolly [10, 15]: 100 | Plant response rating, Cupgrass, Woolly [10, 16]: 100 | Nutsedge, Yellow plant response rating [11, 13]: 0 | Nutsedge, Yellow plant response rating [11, 21]: 0 | Plant response rating, Nutsedge, Yellow [11, 15]: 0 | Plant response rating, Nutsedge, Yellow [11, 16]: 0
